Laboratory results reported in patent publication US10791989B2, “Magnetic resonance imaging of poly-L-glutamate” (The Trustees of The University of Pennsylvania, priority 2013, dated 2020).

Legend:
[1] = biological target: T1, cathepsin B (Homo sapiens, UniProt P07858); experiment: CEST imaging of phantoms (glutamate, PLG, PLG+cathepsin B) on 7T whole-body scanner; type: biochemical; conditions: phantom, room temperature; for CEST contrast at 3 ppm: substance alone
Procedure: (§1) Both the CEST imaging and MRS were performed.

[2] = biological target: T1, cathepsin B; experiment: Proton MRS of phantoms (PLG+cathepsin B) on 7T whole-body scanner; type: biochemical; conditions: phantom with PLG and cathepsin B
Procedure: as §1

[3] = system: F98 tumor cells; conditions: after addition of PLG vs without PLG, 9.4 T
Procedure: as §1
F98 cell line is known to be aggressive and expresses cathepsin B and other proteases.

## N[C@@H](CCC(=O)O)C(=O)O [Glu, glutamate]
[1]
  CEST contrast at 3 ppm: strong CEST contrast

## Poly(L-glutamic acid) [PLG]
[1]; PLG with cathepsin B
  CEST contrast at 3 ppm after addition of cathepsin B: appreciable CEST contrast
[1]
  CEST contrast at 3 ppm: No CEST contrast
[2]
  MR spectrum change with cathepsin B: cleavage of 2.3 and 4.1 ppm peaks
[3]
  increase in CEST contrast at 3 ppm: −16%
